One block for each compound: values may come before it. Peptide text beside a SMILES is read from it.
Legend:
[1] = biological target: T1, CTSL (Homo sapiens, UniProt P07711); test: FRET assay cathepsin L; format: biochemical; settings: result in words, compared with other NNPIs (Fig 2h-j)
T1 construct: purchased R&D systems 952-CY-010
Procedure: (§1) In brief, CTSK or CTSL was diluted to 20 µg/ml or 40 µg/ml respectively, in Assay Buffer (50 mM MES, 5 mM DTT, 1 mM EDTA, 0.005% (w/v) Brij-35, pH 6.0), and incubated on ice for 15 minutes. After activation, CTSK or CTSL was diluted to 0.02 µg/ml in Assay Buffer. The substrate peptide Z-Leu-Arg-AMC (R&D systems, cat #ES008) was then diluted to 20 µM in Assay buffer (40 µM for CTSL).
(§2) Next, 50 µl of the enzyme solution was loaded in a 96-well plate, inhibitors to be tested were added to the enzyme and incubated for 30 minutes, and then the reaction was started by adding 50 µl of the fluorogenic substrate. A substrate blank containing 50 µl of Assay Buffer and 50 µl of substrate without any cathepsin was included. Fluorescent emission was measured with SpectraMax iD3 (Molecular Devices) in kinetic mode for 60 minutes (excitation: 380 nm, emission: 460 nm).
A library of 32 NNPIs was screened by FRET assay on CTSK and CTSL by using 384-well plates. For each of the amino acid positions from 2 to 7 in the original NNPI-E15 structure, 6 different amino acid substitutions were tested (A, L, T, W, E or R). The final concentrations of enzyme and substrate were the same as the ones described above for the respective FRET assays. The final reaction volume per well was 20 µl. The inhibitor concentration was 30 nM. Fluorescent emission was measured with a BioTek Neo HTS plate reader.

[2] = tested on: panel of 7 different cysteine cathepsin proteases; test: FRET assays on a panel of cathepsins (selectivity); format: biochemical; settings: profiled against five additional cathepsins (Fig. 1)
Description: The figures show. • Figure 1. […] A schematic representation of the structure of the NNPI is given to the left.

[3] = biological target: T1, CTSL; test: FRET assay on cathepsin L (CTSL); format: biochemical; settings: substrate Z-Leu-Arg-AMC, inhibitor preincubated 30 minutes, n=3
Procedure: as §1, §2

[4] = Solubility (remark in text, no method); format: physicochemical

T1 sequence (P07711 114-333): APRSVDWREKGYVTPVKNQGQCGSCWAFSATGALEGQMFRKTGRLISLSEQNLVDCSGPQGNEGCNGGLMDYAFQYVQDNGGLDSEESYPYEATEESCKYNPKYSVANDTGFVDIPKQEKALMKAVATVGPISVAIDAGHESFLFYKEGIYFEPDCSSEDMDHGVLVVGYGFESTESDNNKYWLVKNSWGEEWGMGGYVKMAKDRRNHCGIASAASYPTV

- inhibitory potency on CTSL [1]: most potent inhibitor
Compound: KRLW(Y)VMW [NNPI-G12] [listing 1 of 2 here]

Compound: CC(C)C[C@H](NC(=O)[C@H](CCCNC(=N)N)NC(=O)[C@@H](N)CCCCN)C(=O)N[C@@H](Cc1c[nH]c2ccccc12)C(=O)NC/C=C/C(=O)N[C@H](C(=O)N[C@@H](CC(C)C)C(=O)N[C@@H](Cc1c[nH]c2ccccc12)C(N)=O)C(C)C [NNPI-G14, KRLW(Y)VLW] (HELM PEPTIDE1{K.R.L.W.[O=C(/C=C/CN[*:1])[*:2]].V.L.W.[am]}$$$$V2.0)
- selectivity [2]: good selectivity
- IC50 [3]: 1.7 nM

- solubility [4]: poor
Compound: KRLW(Y)VMW [NNPI-G12] [listing 2 of 2 here]

Compound: CC[C@H](C)[C@H](NC(=O)[C@@H](NC(=O)/C=C/CNC(=O)[C@H](CC(C)C)NC(=O)[C@H](CCCNC(=N)N)NC(=O)[C@H](CCCNC(=N)N)NC(=O)[C@@H](N)CCCCN)C(C)C)C(=O)N[C@@H](CCCNC(=N)N)C(N)=O [NNPI-F17, KRRL(Y)VIR] (HELM PEPTIDE1{K.R.R.L.[O=C(/C=C/CN[*:1])[*:2]].V.I.R.[am]}$$$$V2.0; N-terminus and C-terminus assumed)
- selectivity [2]: good selectivity

Reference: patent EP4603504A1, “NOVEL CATHEPSIN K AND L INHIBITORS” (ECOLE POLYTECHNIQUE FEDERALE DE LAUSANNE (EPFL), priority 2024, dated 2025)
